Laboratory results: ChEMBL document CHEMBL1201862, “PubChem BioAssay data set” (2004)
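Growth conditions: 96-well plates. Treatment: test compound, 48 hours, 5 concentrations. Analysis: linear interpolation between bracketing concentrations; unreached endpoints set to highest concentration. At the GI50, growth is halved.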 Activity calls are given as the source filed them. Rule as the data show it: active = GI50 up to about 1.1 µM and inactive = higher.

Key:
Experiment in all cases: NCI-60 cell line screen, 48 h
MOLT-4 = test system: MOLT-4
LOX IMVI = test system: LOX IMVI
Hs-578T = test system: Hs-578T
MDA-MB-231 = test system: MDA-MB-231
IGROV-1 = test system: IGROV-1
Malme-3M = test system: Malme-3M
OVCAR-4 = test system: OVCAR-4
CAKI-1 = test system: CAKI-1
SK-MEL-2 = test system: SK-MEL-2
NCI/ADR-RES = test system: NCI/ADR-RES
SF-268 = test system: SF-268
DU-145 = test system: DU-145
EKVX = test system: EKVX
NCI-H23 = test system: NCI-H23
BT-549 = test system: BT-549
UACC-62 = test system: UACC-62
SK-MEL-28 = test system: SK-MEL-28
SN12C = test system: SN12C
MDA-N = test system: MDA-N
SNB-19 = test system: SNB-19
PC-3 = test system: PC-3
RPMI-8226 = test system: RPMI-8226
NCI-H226 = test system: NCI-H226
OVCAR-5 = test system: OVCAR-5
OVCAR-3 = test system: OVCAR-3
M14 = test system: M14
HCT-116 = test system: HCT-116
MDA-MB-435 = test system: MDA-MB-435
SF-539 = test system: SF-539
SR = test system: SR
UACC-257 = test system: UACC-257
RXF 393 = test system: RXF 393
SW-620 = test system: SW-620
U-251 = test system: U-251
CCRF-CEM = test system: CCRF-CEM
KM12 = test system: KM12
HOP-92 = test system: HOP-92
SK-MEL-5 = test system: SK-MEL-5
OVCAR-8 = test system: OVCAR-8
A549 = test system: A549
A498 = test system: A498
MCF7 = test system: MCF7
HT-29 = test system: HT-29
HCT-15 = test system: HCT-15
NCI-H522 = test system: NCI-H522
786-0 = test system: 786-0
TK-10 = test system: TK-10
K562 = test system: K562
UO-31 = test system: UO-31
HOP-62 = test system: HOP-62
ACHN = test system: ACHN
SNB-75 = test system: SNB-75
COLO 205 = test system: COLO 205
HCC 2998 = test system: HCC 2998
SF-295 = test system: SF-295
NCI-H460 = test system: NCI-H460
HL-60 = test system: HL-60
T47D = test system: T47D
SK-OV-3 = test system: SK-OV-3

## O=C1C=CC2(C=C1)CCC(=O)O2
MOLT-4
  GI50: > 100 µM (inactive)
LOX IMVI
  GI50: 4.83 µM (inactive)
Hs-578T
  GI50: 10.6 µM (inactive)
MDA-MB-231
  GI50: 10.1 µM (inactive)
IGROV-1
  GI50: 10.8 µM (inactive)
Malme-3M
  GI50: 5.58 µM (inactive)
OVCAR-4
  GI50: 14.8 µM (inactive)
CAKI-1
  GI50: 5.87 µM (inactive)
SK-MEL-2
  GI50: 16.1 µM (inactive)
NCI/ADR-RES
  GI50: 32.9 µM (inactive)
SF-268
  GI50: 12.1 µM (inactive)
DU-145
  GI50: 15.5 µM (inactive)
EKVX
  GI50: 17.9 µM (inactive)
NCI-H23
  GI50: 14.2 µM (inactive)
BT-549
  GI50: 18.5 µM (inactive)
UACC-62
  GI50: 16.5 µM (inactive)
SK-MEL-28
  GI50: 16 µM (inactive)
SN12C
  GI50: 16.1 µM (inactive)
MDA-N
  GI50: 27.9 µM (inactive)
SNB-19
  GI50: 17.5 µM (inactive)
PC-3
  GI50: 12.6 µM (inactive)
RPMI-8226
  GI50: 5.89 µM (inactive)
NCI-H226
  GI50: 19.2 µM (inactive)
OVCAR-5
  GI50: 22.7 µM (inactive)
OVCAR-3
  GI50: 13.2 µM (inactive)
M14
  GI50: 29.2 µM (inactive)
HCT-116
  GI50: 14.8 µM (inactive)
MDA-MB-435
  GI50: 15.5 µM (inactive)
SF-539
  GI50: 12.2 µM (inactive)
SR
  GI50: 6.38 µM (inactive)
UACC-257
  GI50: 18.7 µM (inactive)
RXF 393
  GI50: 14.6 µM (inactive)
SW-620
  GI50: 11.6 µM (inactive)
U-251
  GI50: 7.18 µM (inactive)
CCRF-CEM
  GI50: 5.82 µM (inactive)
KM12
  GI50: 15.3 µM (inactive)
HOP-92
  GI50: 11.1 µM (inactive)
SK-MEL-5
  GI50: 16.3 µM (inactive)
OVCAR-8
  GI50: 16.2 µM (inactive)
A549
  GI50: 20.6 µM (inactive)
A498
  GI50: 36.3 µM (inactive)
MCF7
  GI50: 13.4 µM (inactive)
HT-29
  GI50: 22.9 µM (inactive)
HCT-15
  GI50: 7.52 µM
NCI-H522
  GI50: 2.34 µM (inactive)
786-0
  GI50: 15 µM (inactive)
TK-10
  GI50: 11.9 µM (inactive)
K562
  GI50: 10.7 µM (inactive)
UO-31
  GI50: 15.1 µM (inactive)
HOP-62
  GI50: 20.2 µM (inactive)
ACHN
  GI50: 15.2 µM (inactive)
SNB-75
  GI50: 19 µM (inactive)
COLO 205
  GI50: 11 µM (inactive)
HCC 2998
  GI50: 14.2 µM (inactive)
SF-295
  GI50: 19.8 µM (inactive)
NCI-H460
  GI50: 14.3 µM (inactive)

## CNC(=O)Oc1ccc(C(=S)Nc2ccc(Br)cc2)cc1
MOLT-4
  GI50: 5.42 µM (inactive)
LOX IMVI
  GI50: 13.4 µM (inactive)
Hs-578T
  GI50: 19.8 µM (inactive)
IGROV-1
  GI50: 0.783 µM (active)
Malme-3M
  GI50: 31.3 µM (inactive)
OVCAR-4
  GI50: 18.5 µM (inactive)
CAKI-1
  GI50: 17.8 µM (inactive)
SK-MEL-2
  GI50: 17.7 µM (inactive)
HL-60
  GI50: 2.1 µM (inactive)
T47D
  GI50: 18.5 µM (inactive)
NCI/ADR-RES
  GI50: 17.6 µM (inactive)
SF-268
  GI50: 9.55 µM (inactive)
DU-145
  GI50: 26.5 µM (inactive)
EKVX
  GI50: 8.05 µM (inactive)
SK-OV-3
  GI50: 44 µM (inactive)
NCI-H23
  GI50: 15.7 µM (inactive)
BT-549
  GI50: 17.1 µM (inactive)
UACC-62
  GI50: 12.9 µM (inactive)
SK-MEL-28
  GI50: 22 µM (inactive)
MDA-N
  GI50: 22.2 µM (inactive)
SNB-19
  GI50: 36.3 µM (inactive)
PC-3
  GI50: 23.8 µM (inactive)
RPMI-8226
  GI50: 23 µM (inactive)
OVCAR-5
  GI50: 25.4 µM (inactive)
OVCAR-3
  GI50: 19.7 µM (inactive)
M14
  GI50: 18.1 µM (inactive)
HCT-116
  GI50: 19.8 µM (inactive)
MDA-MB-435
  GI50: 21.8 µM (inactive)
SF-539
  GI50: 18.4 µM (inactive)
SR
  GI50: 13.6 µM (inactive)
UACC-257
  GI50: 28.4 µM (inactive)
SW-620
  GI50: 23.1 µM (inactive)
U-251
  GI50: 23.2 µM (inactive)
CCRF-CEM
  GI50: 1.81 µM (inactive)
KM12
  GI50: 14.3 µM (inactive)
SK-MEL-5
  GI50: 17.8 µM (inactive)
OVCAR-8
  GI50: 7.98 µM (inactive)
A549
  GI50: 21.9 µM (inactive)
A498
  GI50: 18.4 µM (inactive)
MCF7
  GI50: 18.3 µM (inactive)
HT-29
  GI50: 19.9 µM (inactive)
HCT-15
  GI50: 16.1 µM
NCI-H522
  GI50: 11.4 µM (inactive)
786-0
  GI50: 21.8 µM (inactive)
K562
  GI50: 14.1 µM (inactive)
UO-31
  GI50: 17 µM (inactive)
HOP-62
  GI50: 20.6 µM (inactive)
ACHN
  GI50: 24.4 µM (inactive)
COLO 205
  GI50: 18.2 µM (inactive)
HCC 2998
  GI50: 17.8 µM (inactive)

## O=C(NC(CCCCN1C(=O)c2ccccc2C1=O)P(=O)(Oc1ccccc1)Oc1ccccc1)OCc1ccccc1 (stereo unspecified)
Hs-578T
  GI50: > 100 µM (inactive)
IGROV-1
  GI50: > 100 µM (inactive)
Malme-3M
  GI50: > 100 µM (inactive)
CAKI-1
  GI50: > 100 µM (inactive)
SK-MEL-2
  GI50: > 100 µM (inactive)
T47D
  GI50: > 100 µM (inactive)
NCI/ADR-RES
  GI50: > 100 µM (inactive)
SF-268
  GI50: > 100 µM (inactive)
DU-145
  GI50: > 100 µM (inactive)
EKVX
  GI50: > 100 µM (inactive)
SK-OV-3
  GI50: > 100 µM (inactive)
NCI-H23
  GI50: 7.33 µM (inactive)
BT-549
  GI50: > 100 µM (inactive)
UACC-62
  GI50: > 100 µM (inactive)
SK-MEL-28
  GI50: > 100 µM (inactive)
SN12C
  GI50: > 100 µM (inactive)
MDA-N
  GI50: > 100 µM (inactive)
SNB-19
  GI50: > 100 µM (inactive)
PC-3
  GI50: > 100 µM (inactive)
RPMI-8226
  GI50: > 100 µM (inactive)
NCI-H226
  GI50: > 100 µM (inactive)
OVCAR-5
  GI50: > 100 µM (inactive)
OVCAR-3
  GI50: > 100 µM (inactive)
M14
  GI50: > 100 µM (inactive)
MDA-MB-435
  GI50: > 100 µM (inactive)
SF-539
  GI50: > 100 µM (inactive)
SR
  GI50: > 100 µM (inactive)
UACC-257
  GI50: > 100 µM (inactive)
RXF 393
  GI50: > 100 µM (inactive)
SW-620
  GI50: > 100 µM (inactive)
U-251
  GI50: > 100 µM (inactive)
KM12
  GI50: > 100 µM (inactive)
HOP-92
  GI50: > 100 µM (inactive)
SK-MEL-5
  GI50: > 100 µM (inactive)
OVCAR-8
  GI50: > 100 µM (inactive)
A549
  GI50: > 100 µM (inactive)
MCF7
  GI50: > 100 µM (inactive)
HT-29
  GI50: > 100 µM (inactive)
HCT-15
  GI50: > 10 µM
NCI-H522
  GI50: 75 µM (inactive)
786-0
  GI50: > 100 µM (inactive)
TK-10
  GI50: > 100 µM (inactive)
UO-31
  GI50: > 100 µM (inactive)
HOP-62
  GI50: 71.8 µM (inactive)
ACHN
  GI50: > 100 µM (inactive)
SNB-75
  GI50: 0.01 µM (active)
COLO 205
  GI50: > 100 µM (inactive)
HCC 2998
  GI50: > 100 µM (inactive)
SF-295
  GI50: > 100 µM (inactive)
NCI-H460
  GI50: > 100 µM (inactive)
